# Reference: patent publication US20030216361A1, “Therapeutic compositions effective against gram positive bacteria” (priority 2000, published 2003)
# Read-outs that look alike come from different tables or passages of the source.
# Columns and labels:
# Nocardia asteroides = test: Broth macrodilution MIC and MBC, clinical isolates; conditions: clinical isolate, 1 strain
# [1] = system: Enterobacter cloacae ATCC 13047; test: Disk diffusion susceptibility testing
# [2] = system: Vancomycin-resistant Enterococcus spp.; test: Broth macrodilution MIC and MBC, clinical isolates
# [3] = system: Cryptococcus neoformans ATCC 90112; test: Disk diffusion susceptibility testing
# Lactobacillus spp. = test: Broth macrodilution MIC and MBC, clinical isolates; conditions: clinical isolate, 1 strain
# Paenibacillus alvei = test: Broth macrodilution MIC and MBC, clinical isolates; conditions: clinical isolate, 1 strain
# [4] = system: Micrococcus luteus Presque Isle 456; test: Disk diffusion susceptibility testing
# C. sputi = test: Broth macrodilution MIC and MBC, clinical isolates; conditions: clinical isolate, 1 strain
# E. faecalis ATCC 29212 = test: Effect of pH on broth macrodilution MICs; type: cell-based, Enterococcus faecalis
# [5] = system: Bacillus subtilis Presque Isle 620; test: Disk diffusion susceptibility testing
# [6] = system: Enterococcus faecalis ATCC 29212; test: Disk diffusion susceptibility testing
# [7] = system: Neisseria gonorrhoeae ATCC 49226; test: Disk diffusion susceptibility testing
# [8] = system: Escherichia coli ATCC 25922; test: Disk diffusion susceptibility testing
# [9] = system: Staphylococcus epidermidis Presque Isle 4653; test: Disk diffusion susceptibility testing
# [10] = system: Corynebacterium hoagi ATCC 7005; test: Broth macrodilution MIC and MBC, reference strains; conditions: ATCC7005
# N. farcinica = test: Broth macrodilution MIC and MBC, clinical isolates; conditions: clinical isolate, 1 strain
# [11] = system: Arcanobacterium haemolyticum; test: Broth macrodilution MIC and MBC, clinical isolates; conditions: clinical isolate, 1 strain
# Rhodococcus spp. = test: Broth macrodilution MIC and MBC, clinical isolates
# B. licheniformis = test: Broth macrodilution MIC and MBC, clinical isolates; conditions: clinical isolate, 1 strain
# [12] = system: Vancomycin-resistant Enterococcus faecalis, clinical isolate; test: Effect of pH on broth macrodilution MICs; type: cell-based
# [13] = system: Klebsiella pneumoniae Presque Isle 344; test: Disk diffusion susceptibility testing
# [14] = system: Proteus vulgaris Presque Isle 365; test: Disk diffusion susceptibility testing
# [15] = system: Staphylococcus aureus ATCC 29213; test: Disk diffusion susceptibility testing
# [16] = system: Methicillin-resistant Staphylococcus aureus, clinical isolate; test: Effect of pH on broth macrodilution MICs; type: cell-based
# [17] = system: Streptococcus pneumoniae ATCC 6303; test: Broth macrodilution MIC and MBC, reference strains; conditions: ATCC6303
# Group A Streptococcus = test: Broth macrodilution MIC and MBC, clinical isolates
# [18] = pH 6, range of 3 determinations
# [19] = pH 7, range of 3 determinations
# [20] = pH 8, range of 3 determinations
compound,measurement,setting,value
CC(=O)O[C@H]1CC[C@@]2(C)[C@@H](CC[C@@H]3[C@@H]2CC[C@]2(C)[C@@H](NC(=O)[C@@H]4CCCN4)CC[C@@H]32)C1,MBC Range,Nocardia asteroides,32 µg/mL
same,MIC Range,Nocardia asteroides,8 µg/mL
same,MIC,[1],>100 μg/disk
same,MIC50,[2]; Enterococcus,8 µg/mL
same,MIC90,[2]; Enterococcus,16 µg/mL
same,MBC,"[2]; Enterococcus, read-out: MBC 50%",16 µg/mL
same,MBC,"[2]; Enterococcus, read-out: MBC 90%",> 64 µg/mL
same,MIC Range,"[2]; clinical isolates, 34 strains",4 to 16 µg/mL
same,share of strains with MBC/MIC ratios ≦2,[2]; vancomycin-resistant Enterococcus spp.,59%
same,MIC,[3],>100 μg/disk
same,MBC Range,Lactobacillus spp.,32 µg/mL
same,MIC Range,Lactobacillus spp.,16 µg/mL
same,MBC Range,Paenibacillus alvei,>64 µg/mL
same,MIC Range,Paenibacillus alvei,16 µg/mL
same,MIC,[4],1.56-3.12 μg/disk
same,MBC Range,C. sputi,32 µg/mL
same,MIC Range,C. sputi; read at 72 h,8 µg/mL
same,MIC Range,E. faecalis ATCC 29212; [18],32 µg/mL
same,MIC Range,E. faecalis ATCC 29212; [19],8 to 16 µg/mL
same,MIC Range,E. faecalis ATCC 29212; [20],4 to 8 µg/mL
same,MIC,[5],3.12-6.25 μg/disk
same,MIC,[6],25-50 μg/disk
same,MIC,[7],>100 μg/disk
same,MIC,[8],>100 μg/disk
same,MIC,[9],6.25-12.5 μg/disk
same,MBC,[10],32 µg/mL
same,MIC,[10],8 µg/mL
same,MBC Range,N. farcinica,64 µg/mL
same,MIC Range,N. farcinica,16 µg/mL
same,MBC Range,[11],32 µg/mL
same,MIC Range,[11],16 µg/mL
same,MIC50,Rhodococcus spp.; Rhodococcus,8 µg/mL
same,MIC90,Rhodococcus spp.; Rhodococcus,16 µg/mL
same,share of strains with MBC/MIC ratios ≦2,Rhodococcus spp.; Rhodococcus spp.,58%
same,MBC,"Rhodococcus spp.; Rhodococcus, read-out: MBC 50%",16 µg/mL
same,MBC,"Rhodococcus spp.; Rhodococcus, read-out: MBC 90%",32 µg/mL
same,MIC Range,"Rhodococcus spp.; clinical isolates, 19 strains, read after 48 h",4 to 64 µg/mL
same,MBC Range,B. licheniformis,>64 µg/mL
same,MIC Range,B. licheniformis,32 µg/mL
same,MIC Range,[12]; [18],32 µg/mL
same,MIC Range,[12]; [19],8 µg/mL
same,MIC Range,[12]; [20],4 to 8 µg/mL
same,MIC,[13],>100 μg/disk
same,MIC,[14],>100 μg/disk
same,MIC,[15],12.5-25 μg/disk
same,MIC Range,[16]; [18],16 µg/mL
same,MIC Range,[16]; [19],8 µg/mL
same,MIC Range,[16]; [20],4 µg/mL
same,MBC,[17],16 µg/mL
same,MIC,[17],16 µg/mL
same,share of strains with MBC/MIC ratios ≦2,Group A Streptococcus; Group A Streptococcus,89%
same,MIC50,Group A Streptococcus; Streptococcus,8 µg/mL
same,MIC90,Group A Streptococcus; Streptococcus,16 µg/mL
same,MBC,"Group A Streptococcus; Streptococcus, read-out: MBC 50%",16 µg/mL
same,MBC,"Group A Streptococcus; Streptococcus, read-out: MBC 90%",32 µg/mL
same,MBC Range,"Group A Streptococcus; clinical isolates, 18 strains",8 to 32 µg/mL
same,MIC Range,"Group A Streptococcus; clinical isolates, 18 strains",8 to 16 µg/mL
